The test system of this assay is MV-4-11 cells. Description: Gene expression microarray analysis (Affymetrix PrimeView) and GSEA. It counts as cell-based, human. Particulars: MV-4-11 cells, 48 hours. Also noted: RFU PODN (11730768_x_at) / Fold change /veh PODN (11730768_x_at) / RFU LINC00158 (11744669_a_at) / Fold change /veh LINC00158 (11744669_a_at) / RFU DUSP10 (11751237_a_at) / Fold change /veh DUSP10 (11751237_a_at) / RFU ID3 (11757404_x_at) / Fold change /veh ID3 (11757404_x_at) / RFU PLEKHG5 (11737974_s_at) / Fold change /veh PLEKHG5 (11737974_s_at) / RFU LRRC4B (11730491_at) / Fold change /veh LRRC4B (11730491_at) / RFU GIMAP4 (11747438_a_at) / Fold change /veh GIMAP4 (11747438_a_at) / RFU KRT8 (11758183_x_at) / Fold change /veh KRT8 (11758183_x_at) / RFU CNN1 (11734310_a_at) / Fold change /veh CNN1 (11734310_a_at) / RFU VPS37D (11726825_at) / Fold change /veh VPS37D (11726825_at) / RFU C10orf10 (11716522_x_at) / Fold change /veh C10orf10 (11716522_x_at) / RFU KIR2DL2 /// KIR2DL4 /// KIR2DL5A /// KIR2DL5B /// KIR2DS1 /// KIR2DS2 /// KIR2DS3 /// KIR2DS4 /// KIR3DL3 /// KIR3DL3 /// KIR3DS1 (11738374_at) / Fold change /veh KIR2DL2 /// KIR2DL4 /// KIR2DL5A /// KIR2DL5B /// KIR2DS1 /// KIR2DS2 /// KIR2DS3 /// KIR2DS4 /// KIR3DL3 /// KIR3DL3 /// KIR3DS1 (11738374_at) / RFU C1QL1 (11718748_at) / Fold change /veh C1QL1 (11718748_at) / RFU TMPRSS4 (11747572_a_at) / Fold change /veh TMPRSS4 (11747572_a_at) / RFU HAMP (11756126_x_at) / Fold change /veh HAMP (11756126_x_at) / RFU RNFT2 (11725882_a_at) / Fold change /veh RNFT2 (11725882_a_at) / RFU NR4A2 (11747474_a_at) / Fold change /veh NR4A2 (11747474_a_at) / RFU ABCC12 (11746883_a_at) / Fold change /veh ABCC12 (11746883_a_at) / RFU TMEM136 (11760407_x_at) / Fold change /veh TMEM136 (11760407_x_at) / RFU CLDN22 /// WWC2 (11732394_at) / Fold change /veh CLDN22 /// WWC2 (11732394_at) / RFU HLA-DPB1 (11760878_x_at) / Fold change /veh HLA-DPB1 (11760878_x_at) / RFU SPINT1 (11716480_a_at) / Fold change /veh SPINT1 (11716480_a_at) / RFU GAP43 (11754022_s_at) / Fold change /veh GAP43 (11754022_s_at) / RFU A4GNT (11735810_at) / Fold change /veh A4GNT (11735810_at) / RFU PRB3 (11715151_x_at) / Fold change /veh PRB3 (11715151_x_at) / RFU TUBB4B (11761932_at) / Fold change /veh TUBB4B (11761932_at) / RFU CAPN14 (11732068_a_at) / Fold change /veh CAPN14 (11732068_a_at) / RFU TMCC2 (11721928_a_at) / Fold change /veh TMCC2 (11721928_a_at) / RFU IRGQ (11745062_a_at) / Fold change /veh IRGQ (11745062_a_at) / RFU FAM174B (11720279_a_at) / Fold change /veh FAM174B (11720279_a_at) / RFU TMPRSS4 (11748680_a_at) / Fold change /veh TMPRSS4 (11748680_a_at) / RFU FAM212B (11763350_a_at) / Fold change /veh FAM212B (11763350_a_at) / RFU PLEKHG5 (11743358_a_at) / Fold change /veh PLEKHG5 (11743358_a_at) / RFU ZSCAN30 (11745921_a_at) / Fold change /veh ZSCAN30 (11745921_a_at) / RFU CMKLR1 (11741424_a_at) / Fold change /veh CMKLR1 (11741424_a_at) / RFU LOC101060620 /// MAPK8IP1 (11723275_at) / Fold change /veh LOC101060620 /// MAPK8IP1 (11723275_at) / RFU SPTSSB (11747773_x_at) / Fold change /veh SPTSSB (11747773_x_at) / RFU PRSS12 (11739890_at) / Fold change /veh PRSS12 (11739890_at) / RFU BIN1 (11741810_x_at) / Fold change /veh BIN1 (11741810_x_at) / RFU WNT11 (11732464_a_at) / Fold change /veh WNT11 (11732464_a_at) / RFU C10orf10 (11716521_a_at) / Fold change /veh C10orf10 (11716521_a_at) / RFU C5orf56 (11738089_at) / Fold change /veh C5orf56 (11738089_at) / RFU CYB561 (11721691_x_at) / Fold change /veh CYB561 (11721691_x_at) / RFU ANKRD19P (11752326_a_at) / Fold change /veh ANKRD19P (11752326_a_at) / RFU OR2T12 /// OR2T33 /// OR2T8 (11738714_s_at) / Fold change /veh OR2T12 /// OR2T33 /// OR2T8 (11738714_s_at) / RFU VCAN (11748164_a_at) / Fold change /veh VCAN (11748164_a_at) / RFU JSRP1 (11732532_at) / Fold change /veh JSRP1 (11732532_at) / RFU KRTAP10-11 (11738290_x_at) / Fold change /veh KRTAP10-11 (11738290_x_at) / RFU MYO3A (11730013_a_at) / Fold change /veh MYO3A (11730013_a_at) / RFU EBF3 (11725865_a_at) / Fold change /veh EBF3 (11725865_a_at) / RFU CAMK2N1 (11719241_x_at) / Fold change /veh CAMK2N1 (11719241_x_at) / RFU C5orf56 (11738088_a_at) / Fold change /veh C5orf56 (11738088_a_at) / RFU OLFML3 (11715873_a_at) / Fold change /veh OLFML3 (11715873_a_at) / RFU LOC100653217 /// NTM (11731650_a_at) / Fold change /veh LOC100653217 /// NTM (11731650_a_at) / RFU MAPK11 (11762145_a_at) / Fold change /veh MAPK11 (11762145_a_at) / RFU FIZ1 (11724087_x_at) / Fold change /veh FIZ1 (11724087_x_at) / RFU OASL (11726364_x_at) / Fold change /veh OASL (11726364_x_at) / RFU SOX15 (11748057_x_at) / Fold change /veh SOX15 (11748057_x_at) / RFU CD79A (11719716_a_at) / Fold change /veh CD79A (11719716_a_at) / RFU HIST1H1D (11736915_at) / Fold change /veh HIST1H1D (11736915_at) / RFU CASKIN2 (11723855_a_at) / Fold change /veh CASKIN2 (11723855_a_at) / RFU LOC730098 (11760151_x_at) / Fold change /veh LOC730098 (11760151_x_at) / RFU OR4N2 (11742367_at) / Fold change /veh OR4N2 (11742367_at) / RFU PRRT2 (11749266_a_at) / Fold change /veh PRRT2 (11749266_a_at) / RFU SNX32 (11753110_a_at) / Fold change /veh SNX32 (11753110_a_at) / RFU CDHR5 (11726645_a_at) / Fold change /veh CDHR5 (11726645_a_at) / RFU RCAN1 (11760418_a_at) / Fold change /veh RCAN1 (11760418_a_at) / RFU FAM167A (11723789_a_at) / Fold change /veh FAM167A (11723789_a_at) / RFU FAM26E (11764081_at) / Fold change /veh FAM26E (11764081_at) / RFU ISYNA1 (11749810_s_at) / Fold change /veh ISYNA1 (11749810_s_at) / RFU ACY1 (11761880_at) / Fold change /veh ACY1 (11761880_at) / RFU 11764098_at / Fold change /veh 11764098_at / RFU SAMD14 (11745864_x_at) / Fold change /veh SAMD14 (11745864_x_at) / RFU NPB (11741838_a_at) / Fold change /veh NPB (11741838_a_at) / RFU TMPRSS6 (11731388_a_at) / Fold change /veh TMPRSS6 (11731388_a_at) / RFU KRTAP10-2 (11738614_at) / Fold change /veh KRTAP10-2 (11738614_at) / RFU ARHGAP8 /// PRR5-ARHGAP8 (11727945_x_at) / Fold change /veh ARHGAP8 /// PRR5-ARHGAP8 (11727945_x_at) / RFU KRTAP5-7 /// NADSYN1 (11734609_at) / Fold change /veh KRTAP5-7 /// NADSYN1 (11734609_at) / RFU RASL12 (11751679_a_at) / Fold change /veh RASL12 (11751679_a_at) / RFU CDKN2B (11736163_a_at) / Fold change /veh CDKN2B (11736163_a_at) / RFU PRF1 (11729649_at) / Fold change /veh PRF1 (11729649_at) / RFU, ZNF638 /// ZNF638-IT1 / Fold change vs veh, ZNF638 /// ZNF638-IT1 / RFU, PANK3 / Fold change vs veh, PANK3 / RFU, SH3YL1 / Fold change vs veh, SH3YL1 / RFU, ZEB2 / Fold change vs veh, ZEB2 / RFU, NRIP1 / Fold change vs veh, NRIP1 / RFU, PTTG1IP / Fold change vs veh, PTTG1IP / RFU, CAPN2 / Fold change vs veh, CAPN2 / RFU, MED14 / Fold change vs veh, MED14 / RFU, SNORA58 / Fold change vs veh, SNORA58 / RFU, C1orf63 / Fold change vs veh, C1orf63 / RFU, LRRFIP1 / Fold change vs veh, LRRFIP1 / RFU, NDUFAF7 / Fold change vs veh, NDUFAF7 / RFU, SLC12A2 / Fold change vs veh, SLC12A2 / RFU, IBTK / Fold change vs veh, IBTK / RFU, ESF1 / Fold change vs veh, ESF1 / Fold change vs veh, TMEM50B / RFU, TAOK1 / Fold change vs veh, TAOK1 / RFU, ACBD3 / Fold change vs veh, ACBD3 / RFU, TMA16 / Fold change vs veh, TMA16 / RFU, RWDD3 / Fold change vs veh, RWDD3 / RFU, BCAT1 / Fold change vs veh, BCAT1 / RFU, EDEM3 / Fold change vs veh, EDEM3 / RFU, TMEM33 / Fold change vs veh, TMEM33 / RFU, WDR75 / Fold change vs veh, WDR75 / RFU, AHCTF1 / Fold change vs veh, AHCTF1 / RFU, TFRC / Fold change vs veh, TFRC / RFU, ZDHHC17 / Fold change vs veh, ZDHHC17 / RFU, NOM1 / Fold change vs veh, NOM1 / RFU, ARL8B / Fold change vs veh, ARL8B / RFU, ZBTB11 / Fold change vs veh, ZBTB11 / RFU, TAMM41 / Fold change vs veh, TAMM41 / RFU, KIAA1704 /// LOC100996395 / Fold change vs veh, KIAA1704 /// LOC100996395 / RFU, ING1 / Fold change vs veh, ING1 / RFU, TRMT61B / Fold change vs veh, TRMT61B / RFU, FUBP3 / Fold change vs veh, FUBP3 / RFU, TP53 / Fold change vs veh, TP53 / RFU, TNKS2 / Fold change vs veh, TNKS2 / RFU, ZFP14 / Fold change vs veh, ZFP14 / RFU, ACTR2 / Fold change vs veh, ACTR2 / RFU, PPP3R1 / Fold change vs veh, PPP3R1 / RFU, PIK3R1 / Fold change vs veh, PIK3R1 / RFU, HNRNPA1 / Fold change vs veh, HNRNPA1 / RFU, RNF170 / Fold change vs veh, RNF170 / RFU, ZNF28 / Fold change vs veh, ZNF28 / RFU, RNGTT / Fold change vs veh, RNGTT / RFU, OGT / Fold change vs veh, OGT / RFU, BRD1 / Fold change vs veh, BRD1 / RFU, MARS / Fold change vs veh, MARS / RFU, ZNF655 / Fold change vs veh, ZNF655 / RFU, FAHD1 / Fold change vs veh, FAHD1 / RFU, BDP1 / Fold change vs veh, BDP1 / RFU, LRRCC1 / Fold change vs veh, LRRCC1 / RFU, ARID1A / Fold change vs veh, ARID1A / RFU, ZNF146 / Fold change vs veh, ZNF146 / RFU, ZNF330 / Fold change vs veh, ZNF330 / RFU, GPN3 / Fold change vs veh, GPN3 / RFU, C9orf123 / Fold change vs veh, C9orf123 / RFU, N4BP2L2 / Fold change vs veh, N4BP2L2 / RFU, ARFIP1 / Fold change vs veh, ARFIP1 / RFU, FAM179B / Fold change vs veh, FAM179B / RFU, BCL10 / Fold change vs veh, BCL10 / RFU, UHRF1BP1L / Fold change vs veh, UHRF1BP1L / RFU, BET1 / Fold change vs veh, BET1 / RFU, CNOT2 / Fold change vs veh, CNOT2 / RFU, ZNF268 / Fold change vs veh, ZNF268 / Fold change vs veh, ZNF507 / RFU, DGCR2 / Fold change vs veh, DGCR2 / RFU, WDSUB1 / Fold change vs veh, WDSUB1 / Fold change vs veh, HSP90B1 /// MIR3652 / RFU, ADSS / Fold change vs veh, ADSS / RFU, GK / Fold change vs veh, GK / RFU, ZNF148 / Fold change vs veh, ZNF148 / RFU, TAF9 / Fold change vs veh, TAF9 / RFU, SLC1A5 / Fold change vs veh, SLC1A5 / RFU, SLMO2 / Fold change vs veh, SLMO2 / RFU, ABCC4 / Fold change vs veh, ABCC4 / RFU, LOC101060439 /// RAP1B / Fold change vs veh, LOC101060439 /// RAP1B / RFU, RFX7 / Fold change vs veh, RFX7 / RFU, GTPBP10 / Fold change vs veh, GTPBP10 / RFU, CNEP1R1 / Fold change vs veh, CNEP1R1 / RFU, BIVM-ERCC5 /// ERCC5 / Fold change vs veh, BIVM-ERCC5 /// ERCC5 / RFU, ILF3 / Fold change vs veh, ILF3 / RFU 11762660_at / Fold change /veh 11762660_at / RFU VCAN (11757783_s_at) / Fold change /veh VCAN (11757783_s_at) / RFU DDX43 (11728927_at) / Fold change /veh DDX43 (11728927_at) / RFU KRT8 (11758188_x_at) / Fold change /veh KRT8 (11758188_x_at) / RFU NKD1 (11759106_at) / Fold change /veh NKD1 (11759106_at) / RFU SRD5A1 (11742802_a_at) / Fold change /veh SRD5A1 (11742802_a_at) / RFU TPSAB1 /// TPSB2 (11721975_s_at) / Fold change /veh TPSAB1 /// TPSB2 (11721975_s_at) / RFU GSTM3 (11746129_a_at) / Fold change /veh GSTM3 (11746129_a_at) / RFU IL23R (11737362_x_at) / Fold change /veh IL23R (11737362_x_at) / RFU TMEM51 (11727254_a_at) / Fold change /veh TMEM51 (11727254_a_at) / RFU PIWIL2 (11732686_x_at) / Fold change /veh PIWIL2 (11732686_x_at) / RFU ORM1 (11744905_x_at) / Fold change /veh ORM1 (11744905_x_at) / RFU CCDC152 (11743942_at) / Fold change /veh CCDC152 (11743942_at) / RFU ECM1 (11717891_a_at) / Fold change /veh ECM1 (11717891_a_at) / RFU IL23R (11748794_a_at) / Fold change /veh IL23R (11748794_a_at) / RFU TNFAIP8L3 (11732012_x_at) / Fold change /veh TNFAIP8L3 (11732012_x_at) / RFU MBOAT4 (11741988_at) / Fold change /veh MBOAT4 (11741988_at) / RFU 11764193_at / Fold change /veh 11764193_at / RFU TMEM53 (11763286_at) / Fold change /veh TMEM53 (11763286_at) / RFU MAGEB2 (11727129_at) / Fold change /veh MAGEB2 (11727129_at) / RFU TMEM200A (11744735_a_at) / Fold change /veh TMEM200A (11744735_a_at) / RFU CCDC152 (11751479_a_at) / Fold change /veh CCDC152 (11751479_a_at) / RFU FAM211A (11726209_a_at) / Fold change /veh FAM211A (11726209_a_at) / RFU RGS16 (11746705_a_at) / Fold change /veh RGS16 (11746705_a_at) / RFU VCAN (11755009_s_at) / Fold change /veh VCAN (11755009_s_at) / RFU RHOB (11743442_s_at) / Fold change /veh RHOB (11743442_s_at) / RFU RGS16 (11720943_a_at) / Fold change /veh RGS16 (11720943_a_at) / RFU RGS16 (11720944_at) / Fold change /veh RGS16 (11720944_at) / RFU, VPS4B / Fold change vs veh, VPS4B / RFU, CREB1 / Fold change vs veh, CREB1 / RFU, DNAJC13 / Fold change vs veh, DNAJC13 / RFU, GNAQ / Fold change vs veh, GNAQ / RFU, CDK5R1 / Fold change vs veh, CDK5R1 / RFU, ZRANB3 / Fold change vs veh, ZRANB3 / RFU, CUL4A / Fold change vs veh, CUL4A / RFU, CCNY / Fold change vs veh, CCNY / RFU, UFL1 / Fold change vs veh, UFL1 / RFU, COG3 / Fold change vs veh, COG3 / RFU, DIAPH2 / Fold change vs veh, DIAPH2 / RFU, SKA2 / Fold change vs veh, SKA2 / RFU, AFF3 / Fold change vs veh, AFF3 / RFU, LMF1 / Fold change vs veh, LMF1 / RFU, IPO11 / Fold change vs veh, IPO11 / RFU, DFFB / Fold change vs veh, DFFB / RFU, FOXP1 / Fold change vs veh, FOXP1 / RFU, CARD8 / Fold change vs veh, CARD8 / RFU, STRN3 / Fold change vs veh, STRN3 / RFU, ADK / Fold change vs veh, ADK / RFU, RASSF2 / Fold change vs veh, RASSF2 / RFU, WIPF1 / Fold change vs veh, WIPF1 / RFU, LARP1B / Fold change vs veh, LARP1B / RFU, RASA1 / Fold change vs veh, RASA1 / RFU, RB1 / Fold change vs veh, RB1 / RFU, PPFIA1 / Fold change vs veh, PPFIA1 / RFU, MAT2A / Fold change vs veh, MAT2A / RFU, CCT5 / Fold change vs veh, CCT5 / RFU, WDR92 / Fold change vs veh, WDR92 / RFU, CUX1 / Fold change vs veh, CUX1 / RFU, TTC7A / Fold change vs veh, TTC7A / RFU, TMEM135 / Fold change vs veh, TMEM135 / RFU, DEPTOR / Fold change vs veh, DEPTOR / RFU, CPM / Fold change vs veh, CPM / RFU, DNAJB6 / Fold change vs veh, DNAJB6 / RFU, CACNA2D3 / Fold change vs veh, CACNA2D3 / RFU, DTX4 / Fold change vs veh, DTX4 / RFU, TFCP2 / Fold change vs veh, TFCP2 / RFU, GMCL1 /// GMCL1P1 / Fold change vs veh, GMCL1 /// GMCL1P1 / RFU, AEBP2 / Fold change vs veh, AEBP2 / RFU, SNHG1 /// SNORD22 /// SNORD25 /// SNORD26 /// SNORD27 /// SNORD28 /// SNORD29 /// SNORD31 / Fold change vs veh, SNHG1 /// SNORD22 /// SNORD25 /// SNORD26 /// SNORD27 /// SNORD28 /// SNORD29 /// SNORD31 / Fold change (Aza/veh), C12orf56 (ProbeSet 11735607_a_at) / Fold change (ACY-1035/veh), C12orf56 (ProbeSet 11735607_a_at) / Fold change (Aza/veh), FGFR1OP (ProbeSet 11751329_s_at) / Fold change (ACY-1035/veh), FGFR1OP (ProbeSet 11751329_s_at) / Fold change (Aza/veh), VPS36 (ProbeSet 11739960_a_at) / Fold change (ACY-1035/veh), VPS36 (ProbeSet 11739960_a_at) / RFU SYPL1 (11715823_x_at) / Fold change /veh SYPL1 (11715823_x_at) / RFU IGFBP7 (11715501_s_at) / Fold change /veh IGFBP7 (11715501_s_at) / RFU REEP3 (11722064_at) / Fold change /veh REEP3 (11722064_at) / RFU IGLL1 (11728026_x_at) / Fold change /veh IGLL1 (11728026_x_at): dose or concentration left out as unconfirmed.

Here are results for one compound from article PMC5218480 (PLoS ONE, 2017).

`Nc1ccc(-c2cccs2)cc1NC(=O)c1ccc2c(c1)cc(C1CC1)n2CCN1CCOCC1` [ACY-1035]: the “Fold change /veh KRTAP10-2 (11738614_at)” value was found to be 0.99.
